Test results from patent US20020169101A1, “Treatment of sexual dysfunction” (priority 1999, published 2002).
Entries after “also recorded” stand apart in the source; their conditions may differ.

How the values were obtained:
[1] = test system: penile intracavernosal pressure; experiment: Penile intracavernosal pressure in the conscious male rat (telemetry); assay type: in vivo; settings: Compound 1 10 mg/kg sc, one hour after, Compound 3 15 mg/kg sc, 45 minutes after, conscious male rat (FIGS. 24, 25)
Method: In addition to treating women with FSD, bombesin antagonists will be useful in treating male erectile dysfunction (MED. Both the non-selective BB1/2 antagonists (Compound 1; 10 mg/kg sc) and the selective BB1 receptor antagonist (Compound 3; 15 mg/kg sc) is pro-erectile in a conscious rat model of penile erection (FIGS. 24 and 25). Erectile responses were recorded by measuring intracavemosal pressure using surgically implanted telemetric device. The specific details the surgical procedures, data acquisition and analysis can be found in detail in Bernabe 1999.
Compound 1 and compound 3 were dissolved in 50% β-cyclodextrin in saline. They were administered at a dose of […] subcutaneously (sc). […] These increases equate to penile erection. Both Compounds 1 and 3 induced a number of erections in a similar manner to those observed with apomorphine or melanotan-II—both of which are clinically proven agents that are effective in the treatment of MED. Moreover the amplitude of the increases observed were similar to those observed with apomorphine or melanotan-II. The mechanism of action is thought to be similar to the effects on female genital flow ie CNS potentiation of the descending neuronal pathways that control penile erection.

[2] = test system: female genital blood flow; experiment: Female genital blood flow in the anaesthetised rabbit model of sexual arousal (pelvic nerve stimulation); assay type: in vivo; settings: 15 mg/kg sc; for basal genital blood flow in the absence of PNS / pelvic-nerve stimulated (PNS) increases in genital (vaginal and clitoral) blood flow: anaesthetised female rabbit (FIGS. 22, 23)
Method: Female New Zealand rabbits (˜2.5kg) were pre-medicated with a combination of Medetomidine (Domitor®) 0.5 ml/kg i.m., and Ketamine (Vetalar®) 0.25 ml/kg im. whilst maintaining oxygen intake via a face mask. The rabbits were tracheotomised using a PortexTM uncuffed endotracheal tube 3 ID., connected to ventilator and maintained at a ventilation rate of 30-40 breaths per minute, with an approximate tidal volume of 18-20 ml, and a maximum airway pressure of 10 cm H2O. Anaesthesia was then switched to Isoflurane and ventilation continued with O2 at 21/min. The right marginal ear vein was cannulated using a 23G or 24G catheter, and Lactated Ringer solution perfused at 0.5 ml/min. The rabbit was maintained at 3% Isoflurane during invasive surgery, dropping to 2% for maintenance anaesthesia.
The left groin area of the rabbit was shaved and a vertical incision was made approximately 5 cm in length along the thigh. The femoral vein and artery were exposed, isolated and then cannulated with a PVC catheter (17G) for the infusion of drugs and compounds. Cannulation was repeated for the femoral artery, inserting the catheter to a depth of 10 cm to ensure that the catheter reached the abdominal aorta. This arterial catheter was linked to a Gould system to record blood pressure. Samples for blood gas analysis were also taken via the arterial catheter. Systolic and diastolic pressures were measured, and the mean arterial pressure calculated using the formula (diastolic x2 +systolic)÷3. Heart rate was measured via the pulse oxymeter and Po-ne-mah data acquisition software system (Ponemah Physiology Platform, Gould Instrument Systems Inc). A ventral midline incision was made into the abdominal cavity. The incision was about 5 cm in length just above the pubis. The fat and muscle was bluntly dissected away to reveal the hypogastric nerve which runs down the body cavity. It was essential to keep close to the side curve of the pubis wall in order to avoid damaging the femoral vein and artery which lie above the pubis. The sciatic and pelvic nerves lie deeper and were located after further dissection on the dorsal side of the rabbit. Once the sciatic nerve is identified, the pelvic nerve was easily located. The term pelvic nerve is loosely applied; anatomy books on the subject fail to identify the nerves in sufficient detail. However, stimulation of the nerve causes an increase in vaginal and clitoral blood flow, and innervation of the pelvic region. The pelvic nerve was freed away from surrounding tissue and a Harvard bipolar stimulating electrode was placed around the nerve. The nerve was slightly lifted to give some tension, then the electrode was secured in position. Approximately 1 ml of light paraffin oil was placed around the nerve and electrode. This acts as a protective lubricant to the nerve and prevents blood contamination of the electrode. The electrode was connected to a Grass S88 Stimulator. The pelvic nerve was stimulated using the following parameters:-5V, pulse width 0.5 ms, duration of stimulus 10 seconds and a frequency range of 2 to 16 Hz. Reproducible responses were obtained when the nerve was stimulated every 15-20 minutes. A frequency response curve was determined at the start of each experiment in order to determine the optimum frequency to use as a sub-maximal response, normally 4 Hz. A ventral midline incision was made, at the caudal end of the pubis, to expose the pubic area. Connective tissue was removed to expose the tunica of the clitoris, ensuring that the wall was free from small blood vessels. The external vaginal wall was also exposed by removing any connective tissue. One laser Doppler flow probe was inserted 3 cm into the vagina, so that half the probe shaft was still visible. A second probe was positioned so that it lay just above the external clitoral wall. The position of these probes was then adjusted until a signal was obtained. A second probe was placed just above the surface of a blood vessel on the external vaginal wall. […]

human GRP receptor (BB2) = biological target: T1, human GRP receptor (BB2) (Homo sapiens, UniProt P30550); experiment: BB2 binding assay ([125I][Tyr4]bombesin displacement, CHO-K1 membranes); settings: read-out: hBB2 Ki
T1 construct: expressed in transfected cells; membranes prepared from the cells
T1 sequence (P30550 whole entry): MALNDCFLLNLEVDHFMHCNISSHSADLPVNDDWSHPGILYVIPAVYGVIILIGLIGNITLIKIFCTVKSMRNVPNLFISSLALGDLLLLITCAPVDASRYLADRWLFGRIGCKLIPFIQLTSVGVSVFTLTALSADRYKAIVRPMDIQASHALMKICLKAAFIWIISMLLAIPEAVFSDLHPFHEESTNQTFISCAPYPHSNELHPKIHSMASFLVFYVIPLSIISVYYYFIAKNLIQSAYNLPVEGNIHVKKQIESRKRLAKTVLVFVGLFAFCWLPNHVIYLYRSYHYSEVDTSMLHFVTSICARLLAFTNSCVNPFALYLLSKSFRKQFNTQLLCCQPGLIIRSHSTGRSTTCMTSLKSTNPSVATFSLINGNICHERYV
How it was run: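 Membranes from CHO-K1 cells stably expressing human NMB (BB1) or GRP (BB2) receptors, in 50 mM Tris-HCl pH 7.4 with BSA and protease inhibitors, incubated with [125I][Tyr4]bombesin (<0.1 nM) for 60 min (BB1) or 90 min (BB2). Nonspecific binding defined with 1 μM bombesin; filtration and gamma counting; IC50 converted to Ki by Cheng-Prusoff.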

| Compound | penile intracavernosal pressure / erection [1] | penile intracavernosal pressure / erection ([1]; listed as compound 3) | time after sc dosing at which potentiation was significant [2] [min] | time potentiation remained elevated [2] | basal genital blood flow in the absence of PNS [2] | pelvic-nerve stimulated (PNS) increases in genital (vaginal and clitoral) blood flow [2] | Ki (human GRP receptor (BB2)) [nM] |
| --- | --- | --- | --- | --- | --- | --- | --- |
| C[C@@](Cc1c[nH]c2ccccc12)(NC(=O)Nc1ccc([N+](=O)[O-])cc1)C(=O)NCC1(c2ccc(N)cc2)CCCCC1 [Compound 3, (2S)-N-{[1-(4-aminophenyl)cyclohexyl]methyl}-3-(1H-indol-3-yl)-2-methyl-2-{[(4-nitroanilino)-carbonyl]amino}propanamide] | pro-erectile | significant increases in intracavernosal pressure | 45 | circa 1 hr | no effect on basal genital blood flow | potent enhancer of pelvic-nerve stimulated (PNS) increases in vaginal and clitoral blood flow | 46 |
| COc1ccc(C2(CNC(=O)[C@](C)(Cc3c[nH]c4ccccc34)NC(=O)Nc3ccc([N+](=O)[O-])cc3)CCCCC2)nc1 [Compound (1), (S) 3-(1H-Indol-3-yl)-N-[1-(5-methoxy-pyridin-2-yl)-cyclohexyl-methyl]-2-methyl-2-[3-(4-nitro-phenyl)-ureido]-propionamide] | pro-erectile; also recorded: significant increases in intracavernosal pressure | – | – | – | no effect on basal genital blood flow | potent enhancer of pelvic-nerve stimulated (PNS) increases in genital blood flow | – |
